Converted amounts (≈) assume the structure as drawn.
Assays:
Experiment in all cases: Minimum inhibitory concentration (MIC), microtiter broth incubation
Format in all cases: cell-based
Conditions in all cases: 0.5x trypticase soy broth, 37° C., 18-24 hours; lowest concentration with no growth
S. aureus = system: S. aureus
Method: (§1) Aminosterol compounds (1)-(11) were assayed in vitro against several microbial organisms to evaluate their spectrum of activity. Minimum inhibitory concentrations (MIC) for the bacteria and yeast were determined by incubating 0.9-1.1e5 colony-forming units per milliliter of log-phase microbes in 0.5×trypticase soy broth with increasing concentrations of sample in ninety-six well microtiter plates (commercially available from Corning of Corning, N.Y.) at 37° C. for eighteen to twenty-four hours. The minimum inhibitory concentration (MIC) is the lowest concentration of sample at which no growth was observed. Control incubation in the absence of bacteria served as a baseline value. Initial sample concentrations were two milligrams per milliliter in 250 mM sodium acetate, pH 6.6.

E. coli = system: E. coli
Method: as §1

C. albicans = system: C. albicans
Method: as §1

P. aeruginosa = system: P. aeruginosa
Method: as §1

Row | MIC S. aureus (S. aureus) [µg/mL] | MIC E. coli (E. coli) [µg/mL] | MIC C. albicans (C. albicans) [µg/mL] | MIC P. aeruginosa (P. aeruginosa) [µg/mL] | Structure (SMILES)
1 | 8 to 16 | 256 (≈ 385 µM) | 128 (≈ 192 µM) | 256 (≈ 385 µM) | CC(CSCC(N)C(=O)O)C(=O)CCC(C)C1CCC2C3C(O)CC4CC(NCCCNCCCCN)CCC4(C)C3CCC12C (stereo not drawn) [Aminosterol (1)]
2 | 31 (≈ 55.2 µM) | 125 (≈ 222 µM) |  | >250 | CC(CCC(=O)C(C)(C)O)C1CCC2C3C(O)CC4CC(NCCCNCCCCN)CCC4(C)C3CCC12C (stereo not drawn) [Aminosterol (2)]
3 | 250 (≈ 388 µM) | >250 |  | >250 | CC(CO)C(CCC(C)C1CCC2C3C(O)CC4CC(NCCCNCCCCN)CCC4(C)C3CCC12C)OS(=O)(=O)O (stereo not drawn) [Aminosterol (3)]
4 | 4 to 8 | 128 (≈ 199 µM) | 16 (≈ 24.8 µM) | 32 (≈ 49.7 µM) | CC(COS(=O)(=O)O)C(O)CCC(C)C1CCC2C3C(O)CC4CC(NCCCNCCCCN)CCC4(C)C3CCC12C (stereo not drawn) [Aminosterol (4)]
5 | 63 (≈ 112 µM) | 125 (≈ 222 µM) |  | 250 (≈ 443 µM) | CC(CO)C(O)CCC(C)C1CCC2C3C(O)CC4CC(NCCCNCCCCN)CCC4(C)C3CCC12C (stereo not drawn) [Aminosterol (5)]
6 | 8 (≈ 14.2 µM) | 63 (≈ 112 µM) |  | >250 | CC(CO)C(=O)CCC(C)C1CCC2C3C(O)CC4CC(NCCCNCCCCN)CCC4(C)C3CCC12C (stereo not drawn) [Aminosterol (6)]
7 | 8 to 16 | 16 (≈ 24.8 µM) | 32 (≈ 49.7 µM) | 16 (≈ 24.8 µM) | CC(C)C(CCC(C)C1CCC2C3C(O)CC4CC(NCCCNCCCCN)CCC4(C)C3CC(O)C12C)OS(=O)(=O)O (stereo not drawn) [Aminosterol (7)]
8 | 1 (≈ 1.83 µM) | 8 (≈ 14.6 µM) |  | 32 (≈ 58.4 µM) | CC(CCCC(C)(C)O)C1CCC2C3C(O)CC4CC(NCCCNCCCCN)CCC4(C)C3CCC12C (stereo not drawn) [Aminosterol (8)]
9 | 31 (≈ 44.2 µM) | 31 (≈ 44.2 µM) |  | 31 (≈ 44.2 µM) | CC(COS(=O)(=O)O)C(O)CCC(C)C1CCC2C3C(O)CC4CC(NCCCNCCCCNCCCN)CCC4(C)C3CCC12C (stereo not drawn) [Aminosterol (9)]
10 | 2 (≈ 3.2 µM) | 8 (≈ 12.8 µM) |  | 31 (≈ 49.5 µM) | CC(C)C(CCC(C)C1CCC2C3C(=O)CC4CC(NCCCNCCCCN)CCC4(C)C3CCC12C)OS(=O)(=O)O (stereo not drawn) [Aminosterol (10)]
11 | 16 (≈ 26.1 µM) | 125 (≈ 204 µM) |  | 250 (≈ 409 µM) | CC(C)C(CCC(C)C1CCC2C3CCC4CC(NCCCNCCCCN)CCC4(C)C3CCC12C)OS(=O)(=O)O (stereo not drawn) [Aminosterol (11)]
